The data set can be described thus: Oral (sublingual) administration of 5 mg asenapine maleate, plasma AUC and adverse effects. It counts as in vivo, healthy adult men. The procedure:
Furthermore, in a case where the patch obtained in Example 1 was administered, the incidence proportion of adverse effects on the cardiovascular system in the AUC measurement test was 6%. Note that when 5 mg of asenapine maleate was orally administered (sublingual administration) to the healthy adult men (18 people), the average value of the area under plasma concentration-time curve of the free asenapine for a period between 10 minutes and 72 hours after the administration (AUC0.17-72) was 32,074 pg·hr/mL, the average value of the AUC0.17-72 of the N-desmethyl asenapine was 14,299 pg·hr/mL, and the incidence proportion of adverse effects on the cardiovascular system was 39%.

Counter-ions that a name gives are not always drawn.

In the case of `CN1C[C@@H]2c3ccccc3Oc3ccc(Cl)cc3[C@H]2C1` (relative stereo) [asenapine maleate, trans-5-chloro-2-methyl-2,3,3a,12b-tetrahydro-1H-dibenz[2,3:6,7]oxepino[4,5-c]pyrrole], where the note is “10 minutes to 72 hours after administration”, the “AUC0.17-72 of the free asenapine” value is listed as 32,074 pg·hr/mL. Further, the “incidence proportion of adverse effects on the cardiovascular system” value (healthy adult men (18 people)) came to 39%.

The values above are taken from US10583121B2, “Patch” (HISAMITSU PHARMACEUTICAL CO., INC., priority 2012, dated 2020).
